In ChEMBL document CHEMBL4622929 (Bioorg Med Chem Lett, 2020):

Assays:
Adenosine receptor A1 [1] = molecular target: T1, Adenosine receptor A1 (Rattus norvegicus, UniProt P25099); assay: Displacement of [3H]DPCPX from Sprague-Dawley rat whole brain membrane A1AR by scintillation counting analysis; type: cell membranes
T1 sequence (P25099 whole entry): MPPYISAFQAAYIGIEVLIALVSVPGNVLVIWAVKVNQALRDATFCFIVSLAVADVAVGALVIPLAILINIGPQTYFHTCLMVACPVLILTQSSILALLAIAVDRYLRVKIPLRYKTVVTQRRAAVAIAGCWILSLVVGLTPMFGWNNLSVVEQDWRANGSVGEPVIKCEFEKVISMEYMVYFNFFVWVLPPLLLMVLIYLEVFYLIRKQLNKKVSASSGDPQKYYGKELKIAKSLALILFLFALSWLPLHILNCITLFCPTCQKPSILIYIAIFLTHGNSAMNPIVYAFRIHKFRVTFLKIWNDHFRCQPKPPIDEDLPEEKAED

[2] = molecular target: T2, Adenosine receptor A1 (Rattus norvegicus) (UniProt P25099); assay: Displacement of [3H]DPCPX from Sprague-Dawley rat whole brain membrane A1AR at 100 uM by scintillation counting analysis relative to control; type: cell membranes
T2 sequence (whole entry): T1 sequence (P25099 whole entry)

Adenosine receptor A2a = Adenosine receptor A2a (Rattus norvegicus, UniProt P30543); assay: Displacement of [3H]NECA from Sprague-Dawley rat striatal membrane A2A adenosine receptor by scintillation counting analysis; type: cell membranes, Striatum
Adenosine receptor A2a, sequence (P30543 whole entry): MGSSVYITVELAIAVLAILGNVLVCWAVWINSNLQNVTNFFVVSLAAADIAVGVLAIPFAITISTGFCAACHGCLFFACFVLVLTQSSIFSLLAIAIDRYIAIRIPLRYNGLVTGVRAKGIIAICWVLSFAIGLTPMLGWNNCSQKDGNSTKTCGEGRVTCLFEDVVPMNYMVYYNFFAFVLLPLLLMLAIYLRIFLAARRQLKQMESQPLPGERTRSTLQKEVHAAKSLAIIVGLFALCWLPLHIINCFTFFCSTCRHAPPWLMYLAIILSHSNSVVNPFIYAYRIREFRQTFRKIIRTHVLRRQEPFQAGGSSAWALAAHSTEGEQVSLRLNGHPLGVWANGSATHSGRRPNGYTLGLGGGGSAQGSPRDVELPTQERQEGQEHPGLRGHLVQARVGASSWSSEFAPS

[3] = molecular target: Adenosine receptor A2a (Rattus norvegicus) (UniProt P30543); assay: Displacement of [3H]NECA from Sprague-Dawley rat striatal membrane A2A adenosine receptor at 100 uM by scintillation counting analysis relative to control; type: cell membranes; conditions: Striatum
Adenosine receptor A2a (Rattus norvegicus), sequence (P30543 whole entry): as above

Adenosine receptor A1 [4] = molecular target: T1, Adenosine receptor A1; assay: Displacement of [3H]DPCPX from Sprague-Dawley rat whole brain membrane A1AR in presence of GTP by radioligand binding assay; type: cell membranes
[5] = molecular target: T2, Adenosine receptor A1 (Rattus norvegicus); assay: Ratio of Ki for displacement of [3H]DPCPX from Sprague-Dawley rat whole brain membrane A1AR in presence of GTP to Ki for displacement of [3H]DPCPX from Sprague-Dawley rat whole brain A1AR; type: cell membranes
Rattus norvegicus = species on record: Rattus norvegicus; assay: Selectivity index, ratio of Ki for Sprague-Dawley rat striatal membrane A2 adenosine receptor to Ki for Sprague-Dawley rat whole brain A1 adenosine receptor

Structure (SMILES) | Ki (Adenosine receptor A1 [1]) [µM] | inhibition [2] [%] | Ki (Adenosine receptor A2a) [µM] | inhibition [3] [%] | Ki (Adenosine receptor A1 [4]) [µM] | Ratio Ki [5] | Ratio Ki (Rattus norvegicus)
O=c1oc(-c2ccc(F)cc2)nc2ccccc12 | > 100 | 100 | > 100 | 70 |  |  | 
O=c1[nH]c(-c2ccc(Br)cc2)nc2ccccc12 | > 100 | 98 | > 100 | 84 |  |  | 
O=c1oc2ccccc2cc1-c1ccccc1 | > 100 | 51 | > 100 | 77 |  |  | 
O=c1[nH]c(/C=C/c2ccccc2)nc2ccccc12 | > 100 | 100 | > 100 | 56 |  |  | 
COc1ccc(-c2nc(O)c3ccccc3n2)cc1OC | > 100 | 67 | 2.81 |  |  |  | 
O=c1[nH]c(-c2ccccc2)cc2ccccc12 | > 100 |  | > 100 |  |  |  | 
O=c1oc(-c2ccco2)nc2ccccc12 | > 100 | 42 | > 100 | 66 |  |  | 
COc1ccc(-c2nc3ccccc3c(=O)o2)cc1 | > 100 | 54 | > 100 | 37 |  |  | 
O=c1[nH]c(-c2ccco2)nc2ccccc12 | 4.62 |  | 8.11 |  | 5.89 | 1.23 | 1.76
Oc1nc(-c2cccs2)nc2ccccc12 | > 100 | 39 | > 100 | 30 |  |  | 
OC[C@H]1O[C@@H](n2cnc3c(NC4CCCC4)ncnc32)[C@H](O)[C@@H]1O [N6-CYCLOPENTYLADENOSINE] |  |  | 0.557 |  |  |  | 
Cc1ccc(-c2nc3ccccc3c(=O)[nH]2)cc1 | 2.5 |  | > 100 | 55 | 2.95 | 1.18 | 
COc1ccc(-c2nc3ccccc3c(=O)[nH]2)cc1 | > 100 |  | > 100 |  |  |  | 
Oc1nc(-c2ccc(F)cc2)nc2ccccc12 | > 100 | 50 | > 100 | 62 |  |  | 
O=c1oc(-c2ccc(Cl)cc2)nc2ccccc12 | > 100 | 86 | > 100 | 81 |  |  | 
Oc1nc(-c2ccccc2)cc2ccccc12 |  | 100 |  | 100 |  |  | 
COc1ccc(-c2nc(O)c3ccccc3n2)cc1 |  | 44 |  | 79 |  |  | 
O=c1oc(/C=C/c2ccccc2)nc2ccccc12 | > 100 | 56 | > 100 | 85 |  |  | 
O=c1oc(-c2cccs2)nc2ccccc12 | 32.4 |  | > 100 | 59 |  |  | 
O=C1OC(c2ccccc2)Nc2ccccc21 (centres undefined) | 5.06 |  | > 100 | 69 | 5.72 | 1.12 | 
O=c1oc2ccccc2nc1-c1ccccc1 | 17.3 |  | > 100 | 91 |  |  | 
CCOc1ccc(-c2nc3ccccc3c(=O)o2)cc1 | > 100 | 99 | > 100 | 77 |  |  | 
O=c1oc(-c2ccc(Br)cc2)nc2ccccc12 | > 100 | 95 | > 100 | 92 |  |  | 
O=c1[nH]c(-c2ccc(Cl)cc2)nc2ccccc12 | > 100 | 54 | > 100 | 82 |  |  | 
O=c1oc(-c2ccccc2)nc2ccccc12 | 6.38 |  | > 100 | 49 | 6.92 | 1.09 | 
Cc1ccc(-c2nc3ccccc3c(=O)o2)cc1 | > 100 | 84 | > 100 | 77 |  |  | 
